SMILES strings stand for the structures.

We go through two molecules from US20260364078A1, “PURINE NUCLEOSIDE PHOSPHORYLASE INHIBITORS FOR THE TREATMENT OF METABOLIC SYNDROME AND ASSOCIATED CONDITIONS” (METASHAPE PHARMA AG, priority 2022, published 2026).

For data set [1], the system named is DIO mouse model. The experiment in a line: Example 2: low and intermittent dosing in DIO mouse model. As to conditions: 2 mg/kg p.o., 3 days a week. Type of data set: in vivo, C57/BL6J mice. An excerpt: The aim of this study is to determine the effect of a low and intermittent dosing regime of ulodesine hemi glutarate on the following parameters: weight gain, food intake, fasting blood glucose concentration, serum insulin, serum cholesterol, plasma liver enzymes aspartate aminotransferase (AST) and alanine transaminase (ALT), inguinal white adipose tissue (iWAT), BAT; inosine in plasma and NAD+ in whole blood, and expression of lipogenesis (fatty acid synthesis) markers in iWAT and thermogenic markers in BAT. The study will assess ulodesine hemi glutarate efficacy on the listed parameters in the DIO mouse model of obesity and metabolic dysfunction.
(§1) Method: C57/BL6J mice were fed obesogenic diet D12492 (60 kcal % fat) from age 6 weeks. Nineteen week old mice (approximately 50 g) were either treated with vehicle (control) or ulodesine hemi glutarate at 2 mg/kg for 3 days a week (days 1, 2 and 3), given orally, over a 28 day period. On day minus 2 and on day 28, animals were fasted for 6 hr (only food withdrawn) and blood was collected for both blood glucose and cholesterol. On day 28 plasma liver enzymes (AST and ALT) and insulin were determined and additional plasma and whole blood was frozen and used for inosine and NAD+ measurement. BAT and iWAT was collected at the end of the study, weighed and quantitative PCR was performed for the lipogenesis markers Stearoyl CoA desaturase 1 (SCD-1) and fatty acid synthetase (FAS) and the thermogenesis marker uncoupling protein 1 (UCP-1). Inosine and NAD+ levels in stored plasma and whole blood respectively were determined by LC/MS/MS.

Data set [2] relates to lymphocytes. Nature of the data set: Example 4: total lymphocytes by flow cytometry in DIO mouse model. Type of data set: in vivo, C57/BL6J mice. As to conditions: 3 days a week, 4 weeks. The procedure:
The aim of this study is to determine the effect of increasing doses of ulodesine hemi glutarate on lymphocytes in whole blood.
Method: C57/BL6J mice were fed obesogenic diet D12492 (60 kcal % fat) from age 6 weeks. Eighteen weeks old mice (approximately 40 g) were either treated with vehicle (control) or ulodesine hemi glutarate at 1, 2, 5, and 10 mg/kg for only 3 days a week (days 1, 2 and 3) given orally for 4 weeks. At the end of four weeks, flow cytometry was used to enumerate total lymphocytes.
(Flow cytometry measures light scatter and fluorescence of single cells or particles in a stream.)

The test system of data set [3] is uncoupling protein 1 (UCP-1). The experiment in a line: Example 2: quantitative PCR of thermogenesis marker in BAT. Type of data set: in vivo, C57/BL6J mice. Conditions: 2 mg/kg p.o., 3 days a week, 28 days; vs vehicle. The procedure:
as §1

Data set [4] has as its system fatty acid synthetase (FAS). Nature of the data set: Example 2: quantitative PCR of lipogenesis marker FAS. Type of data set: in vivo, C57/BL6J mice. As to conditions: 2 mg/kg p.o., 3 days a week, 28 days; vs vehicle. Here is the method:
as §1

In data set [5] the test system is Stearoyl CoA desaturase 1 (SCD-1). The experiment in a line: Example 2: quantitative PCR of lipogenesis marker SCD-1. The format is in vivo, C57/BL6J mice. As to conditions: 2 mg/kg p.o., 3 days a week, 28 days; vs vehicle. Here is the method: as §1
For data set [6], the system named is Diet Induced Obesity (DIO) mouse model. Nature of the data set: Example 1: low and intermittent dosing in DIO mouse model. Type of data set: in vivo, C57/BL6J mice. As to conditions: 2 mg/kg p.o., 3 days a week, 28 days. An excerpt: The aim of the preliminary study is to determine the effect of low and intermittent dosing of ulodesine hemi glutarate on the following parameters: weight gain, food intake, fasting blood glucose concentration and serum cholesterol. The study assesses ulodesine hemi glutarate efficacy on the listed parameters in the DIO mouse model of obesity and metabolic dysfunction.
Method: C57/BL6J mice were fed obesogenic diet D12492 (60 kcal % fat) from age 6 weeks. Eighteen week old mice (approximately 40 g) were either treated with vehicle (control) or ulodesine hemi glutarate at 2 mg/kg for 3 days a week (days 1, 2 and 3) given orally, over a 28 day period. On day −2 and on day 28, animals were fasted for 6 hr by withdrawing food only, and blood was collected for both blood glucose and cholesterol measurements.

Data set [7] has as its system Diet induced obese mice. As to conditions: cited from earlier work.
The test system of data set [8] is brown adipocytes. As to conditions: via cAMP/protein kinase A signalling pathway; cited from earlier work.

Turning to `O=c1[nH]cnc2c(CN3C[C@H](CO)[C@@H](O)C3)c[nH]c12` [ulodesine hemi glutarate], in data set [1] (28 days), the insulin sensitivity result is on record as “improves insulin sensitivity”. For the same molecule, the “toxicity or adverse effects” value in data set [1] (28 days) and in data set [6] was “no signs of any toxicity or adverse effects” throughout. The “decrease in weight gain” value in data set [1] (28 days, ~50 g mice, vs control) is given as “not significantly different from the control group”. Besides, in data set [1] (day 28, LC/MS/MS), the “NAD+ in whole blood” value is given as “significantly elevated”. Moreover, the inosine in plasma entry in data set [1] (day 28, LC/MS/MS) is recorded as “significantly elevated”. Further, the number of lymphocytes result in data set [2] (1 mg/kg p.o.) is “does not impact the number of lymphocytes”; in data set [2] (2 mg/kg p.o.) it was “does not impact the number of lymphocytes”; in data set [2] (5 mg/kg p.o.), “not significant at doses of 5 mg and 10 mg/kg, there appeared to be an observable decrease in lymphocytes”; in data set [2] (10 mg/kg p.o.) it was “not significant at doses of 5 mg and 10 mg/kg, there appeared to be an observable decrease in lymphocytes”. The “expression of thermogenic marker UCP-1 in BAT tissue” value in data set [3] was “increase in expression”. Also, the “expression of lipogenesis marker FAS in WAT tissue” value in data set [4] is “decrease”. Moreover, the “expression of lipogenesis marker SCD-1 in WAT tissue” value in data set [5] is listed as “decrease”. Further, the fasting blood glucose entry in data set [6] (vs control) was “decrease in blood glucose”. For the same molecule, the serum cholesterol entry in data set [6] (vs control) is “decrease in blood glucose and serum cholesterol”. Also, the weight gain result in data set [6] (~40 g mice, vs control) is on record as “significant decrease in weight gain”.

`OC[C@H]1O[C@@H](n2cnc3c(O)ncnc32)[C@H](O)[C@@H]1O` [inosine]: the weight result in data set [7] (diet induced obese mice, daily for 26 days, vs vehicle) is given as “significant reduction in weight”. Also, in data set [7] (mice), the “BAT dependent energy expenditure” value is “increased BAT dependent energy expenditure” and the “browning of white adipose tissue” value is listed as “induced browning of white adipose tissue”. The “energy expenditure in brown adipocytes” value in data set [8] was “stimulates energy expenditure”.
